Data as given in US11584928B2, “Methods for generating barcoded combinatorial libraries” (The Regents of the University of Colorado, priority 2016, dated 2023).

Each substance was assayed on galK (assay: galK editing with MAD2 or MAD7 nuclease and various guide nucleic acid scaffolds, white/red screening). Settings: guide sequence targeting galK.
Format: cell-based, E. coli
Excerpt: MAD2 and MAD7 nucleases are nucleic acid-guided nuclease that can be used in the methods disclosed herein. Nucleases Mad2 (SEQ ID NO: 2) and Mad 7 (SEQ ID NO: 7) were cloned and transformed into cells. Editing cassettes designed to mutate a target site in a galK gene were designed with mutations, which allowed for white/red screening of successfully editing colonies. The editing cassettes also encoded a guide nucleic acid designed to target galK. The editing cassettes were transformed into E. coli cells expressing MAD2, MAD7, or Cas9. […] In this example, the guide nucleic acid used with MAD2 and MAD7 comprised a scaffold-12 sequence and a guide sequence targeting galK. The guide nucleic acid used with Cas9 comprised a sequence compatible with the S. pyogenes Cas9.
(§1) FIG. 32 and Table 3 show more examples of gene editing using the MAD2 nuclease. In this experiment, different guide nucleic acid sequences were tested. The guide sequence of the guide nucleic acids targeted the galK gene as described above. The scaffold sequence of the guide nucleic acids were one of various sequences tested as indicated.
as §1, with “33” for “32”, “4” for “3”, “MAD7” for “MAD2”, “indicated. […] Table 3 and Table 4 also provided the designed mutations in the editing cassettes that were used to mutate the galK target gene.” for “indicated.”

Substance | formation of functional complexes with MAD2 | formation of functional complexes with MAD7
scaffold-5: guide nucleic acid scaffold sequence, SEQ ID NO: 88 (guide CCGTCTAAAACTCATTCAGAATTTCTACTAGTGTAGAT; chemistry not given here) | able to form functional complexes | –
scaffold-10: guide nucleic acid scaffold sequence, SEQ ID NO: 93 (guide CTCTACAACTGATAAAGAATTTCTACTTTTGTAGAT; chemistry not given here) | able to form functional complexes | able to form functional complexes
scaffold-11: guide nucleic acid scaffold sequence, SEQ ID NO: 94 (guide GTCTGGCCCCAAATTTTAATTTCTACTGTTGTAGAT; chemistry not given here) | able to form functional complexes | able to form functional complexes
scaffold-12: guide nucleic acid scaffold sequence, SEQ ID NO: 95 (guide GTCAAAAGACCTTTTTAATTTCTACTCTTGTAGAT; chemistry not given here) | able to form functional complexes | able to form functional complexes
